Test results published in patent US20020156077A1, “Non-steroidal estrogen receptor ligands” (priority 2001, published 2002).
Where two headings read alike, the source gives them in different places.

Key:
[1] = test system: tamoxifen-resistant breast cancers; conditions: tamoxifen-resistant breast cancer patients; cited from earlier work
[2] = target: human recombinant estrogen receptor beta (Homo sapiens, UniProt Q92731); assay: Estrogen receptor beta binding assay, displacement of [3H] Estradiol
human recombinant estrogen receptor beta, sequence (Q92731 whole entry): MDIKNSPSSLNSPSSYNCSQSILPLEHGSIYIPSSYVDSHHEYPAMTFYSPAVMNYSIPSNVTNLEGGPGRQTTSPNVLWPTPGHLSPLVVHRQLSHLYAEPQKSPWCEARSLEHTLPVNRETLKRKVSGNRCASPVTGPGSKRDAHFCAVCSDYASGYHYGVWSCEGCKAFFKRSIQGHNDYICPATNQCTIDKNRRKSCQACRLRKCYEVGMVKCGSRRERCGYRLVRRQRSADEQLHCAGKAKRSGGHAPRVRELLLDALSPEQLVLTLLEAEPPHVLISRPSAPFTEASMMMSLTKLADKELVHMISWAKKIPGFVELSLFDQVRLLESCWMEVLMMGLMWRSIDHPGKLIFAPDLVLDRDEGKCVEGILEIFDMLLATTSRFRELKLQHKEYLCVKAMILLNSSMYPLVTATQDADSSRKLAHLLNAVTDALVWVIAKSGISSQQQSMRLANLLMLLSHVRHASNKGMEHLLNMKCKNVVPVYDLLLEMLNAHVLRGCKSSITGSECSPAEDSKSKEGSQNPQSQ
Description: (§1) The human estrogen receptor occurs in two subtypes, alpha and beta. The stable expression of these individual receptor subtypes in cells provides a rapid and accurate means of quantifying the direct interaction of a test article with the estrogen binding sites. Briefly, this assay is conducted in 96 well plates where a series of concentrations of test article are used to displace tritiated estradiol from either estrogen receptor alpha or estrogen receptor beta bearing cell membranes, under equilibrium conditions. […] This measurement is the primary test for mediation of the estrogen receptor and can also be used to measure the relative selectivity of the test article for either the alpha or beta subtype.
The beta subtype assay also allowed the determination of an IC50 value of the test article under the same conditions as for the alpha subtype assay with the exception that a 7.5 ng aliquot of receptor protein preparation was used.

[3] = target: T1, human recombinant estrogen receptor alpha (Homo sapiens, UniProt P03372); assay: Estrogen receptor alpha binding assay, displacement of [3H] Estradiol
T1 construct: purchased PanVera Corporation
T1 sequence (P03372 1-595): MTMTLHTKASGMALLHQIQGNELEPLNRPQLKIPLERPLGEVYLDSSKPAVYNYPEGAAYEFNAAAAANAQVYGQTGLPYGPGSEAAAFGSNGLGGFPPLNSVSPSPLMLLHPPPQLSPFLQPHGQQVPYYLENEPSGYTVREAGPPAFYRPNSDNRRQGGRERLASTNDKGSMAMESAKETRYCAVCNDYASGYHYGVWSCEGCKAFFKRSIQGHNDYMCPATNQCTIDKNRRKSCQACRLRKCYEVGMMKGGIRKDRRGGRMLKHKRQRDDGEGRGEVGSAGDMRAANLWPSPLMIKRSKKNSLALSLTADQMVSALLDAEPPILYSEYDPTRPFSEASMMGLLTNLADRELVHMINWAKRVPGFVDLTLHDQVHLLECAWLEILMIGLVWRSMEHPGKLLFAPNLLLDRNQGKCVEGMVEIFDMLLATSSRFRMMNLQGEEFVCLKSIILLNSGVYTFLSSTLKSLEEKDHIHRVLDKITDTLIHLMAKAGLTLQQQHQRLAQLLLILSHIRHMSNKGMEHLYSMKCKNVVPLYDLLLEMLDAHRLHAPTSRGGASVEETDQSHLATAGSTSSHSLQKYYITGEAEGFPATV
Description: as §1
The alpha subtype assay measures the binding of [^3H] Estradiol to the human recombinant estrogen receptor. […] Briefly, after proper dilution, a 4.5 ng aliquot of receptor protein in modified Tris-HCL pH 7.5 buffer is incubated with 0.5 nM [^3H] Estradiol for 2 hours at 25° C. Non-specific binding is estimated in the presence of 1.0 μM diethylstilbestrol. Membranes are filtered and washed 3 times, and the filters are counted to determine [^3H] Estradiol specifically bound. Under the same conditions the receptor protein is incubated with varied concentrations of test article ranging from 1 nM to 1 μM and the displacement of [^3H] Estradiol is measured in duplicate. The measurement of the displaced tritiated estradiol allows the determination of an IC50 value, a direct measure of the test articles interaction with the estrogen receptor alpha.

MCF-7 cells = assay: MCF-7 cell proliferation assay (MTT), estradiol stimulated versus unstimulated; assay type: cell-based, human; conditions: FIGS. 1 and 2
Excerpt: Those skilled in the art will appreciate that several acceptable estrogen receptor-binding assays are known and available for initial screening of the compounds of the present invention. The initial screen chosen was a human cell line assay, namely the MCF-7 cell proliferation assay for detecting anti-estrogenic/estrogenic activity. The MCF-7 human breast cancer cell line has been used as an industry standard for the evaluation of estrogen receptor antagonists. MCF-7 cells are estrogen-receptor positive (ER+) cancer cells that respond to estradiol stimulation. Antiestrogenic activity is measured in terms of a test article's ability to inhibit estradiol stimulated proliferation, implying an antagonistic action on the estrogen receptor and estogenic activity can be inferred from increased proliferation. The following testing procedure was used.
MCF-7 cells were maintained in RPMI medium free of phenol red and supplemented with 5% charcoal-stripped foetal calf serum, hydrocortisone, bovine insulin, penicillin and streptomycin until they reached 70% confluence. […] Cell survival was evaluated after 3-6 days, by replacing the culture media with 150 μl of fresh medium containing 10 mM 4-(2-hydroxyethyl)-1-piperazineethamsulfonic acid buffer (pH 7.4) followed by addition of 50 μl of 2.5 mg/ml of 3-(4,5-dimethylthiazo-2-yl)-2,5-diphenyltetrazolium bromide (MTT). […]

[4] = 0.5 nM [3H] Estradiol, 2 hours at 25° C, 7.5 ng receptor protein, read-out: IC50 Value, ER Subtype Beta
[5] = 0.5 nM [3H] Estradiol, 2 hours at 25° C, 4.5 ng receptor protein, read-out: IC50 Value, ER Subtype Alpha

SMILES	IC50 [2, 4] [nM]	IC50 [3, 5] [nM]	effect on estradiol stimulated MCF-7 cell proliferation (shift of dose-response curves) (MCF-7 cells)	further results
C[C@]12CC[C@@H]3c4ccc(O)cc4C[C@@H](CCCCCCCCC[S+]([O-])CCCC(F)(F)C(F)(F)F)[C@H]3[C@@H]1CC[C@@H]2O (stereo partly drawn) [ICI 182780]	–	–	–	tamoxifen-resistant patients who responded [1]: approximately two-thirds
CC(C)=C(C)c1ccc2c(c1)c(-c1ccc(OCCN3CCCCC3)cc1)cc1cc(O)cc(C)c12 [formula 6, 7-(1,2-dimethylpropenyl)-4-methyl-9-[4-(2-piperidin-1-yl-ethoxy)-phenyl]-phenanthren-2-ol]	9	–	–	IC50 [3]: 18 nM
C=C(C)c1ccc2c(c1)c(-c1ccc(OCCN3CCCCC3)cc1)cc1cc(O)cc(C)c12 [formula 5]	–	32	–	IC50 [2]: 20 nM
Cc1cc(O)cc2cc(-c3ccc(OCCN4CCCCC4)cc3)c3cc(C(=O)C(C)C)ccc3c12 [formula 3, 1-[7-hydroxy-5-methyl-10-[4-(2-piperidin-1-yl-ethoxy)-phenyl]-phenanthren-2-yl]-2-methyl-propan-1-one]	120	39	antagonizing the effect of estradiol	–
CC(=O)c1ccc2c(c1)c(-c1ccc(OCCN3CCCCC3)cc1)cc1cc(O)cc(C)c12 [Formula 4, 1-[7-hydroxy-5-methyl-10-[4-(2-piperidin-1-yl-ethoxy)-phenyl]-phenanthren-2-yl]-ethanone]	–	–	antagonizing the effect of estradiol	–
